In patent US20240400555A1 (Initial Therapeutics, Inc., priority 2023, published 2024):

System: MV-4-11 cells
Assay: Cell Viability Assay in MV-4-11 Cells
Assay type: cell-based
Conditions: Homo sapiens, MV4-11, 72 h, MV-4-11 cells, 72 h, Cell-Titer Glo; read-out: IC50
Summary of the method: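 MV-4-11 cells at 7,000/well in IMDM with 10% FBS, exposed to compound for 72 h. Viability by CellTiter-Glo luminescence, normalized to DMSO as 100%, fitted with a four-parameter curve.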

| IC50 [nM] | Structure (SMILES) |
| --- | --- |
| 220 | Cc1sc2ccnc(N(C(=O)c3ccc(-n4nnc5cccnc54)cc3F)[C@@H]3CCCNC3)c2c1C [Example 820, (R)-4-(3H-[1,2,3]triazolo[4,5-b]pyridin-3-yl)-N-(2,3-dimethylthieno[3,2-c]pyridin-4-yl)-2-fluoro-N-(piperidin-3-yl)benzamide] |
| 81 | O=C(c1ccc(-n2nnc3cccnc32)cc1F)N(c1nccc2cc(/C=C/CO)ccc12)[C@@H]1CCCNC1 [Example 331, (R)-4-(3H-[1,2,3]triazolo[4,5-b]pyridin-3-yl)-2-fluoro-N-(6-(3-hydroxyprop-1-en-1-yl)isoquinolin-1-yl)-N-(piperidin-3-yl)benzamide] |
| 200 | Cc1nnc(-c2ccc(C(=O)N(c3nccc4c(Cl)cn(C)c34)[C@@H]3CCCNC3)c(F)c2)s1 [Example 664, (R)—N-(3-chloro-1-methyl-1H-pyrrolo[2,3-c]pyridin-7-yl)-2-fluoro-4-(5-methyl-1,3,4-thiadiazol-2-yl)-N-(piperidin-3-yl)benzamide] |
| 160 | Cc1nnc(-c2ccc(C(=O)N(c3nccc4cc(Cl)cc(C)c34)[C@@H]3CCCNC3)cc2F)s1 [Example 708, (R)—N-(6-chloro-8-methylisoquinolin-1-yl)-3-fluoro-4-(5-methyl-1,3,4-thiadiazol-2-yl)-N-(piperidin-3-yl)benzamide] |
| > 10000 | Cn1cc(-c2ccc(C(=O)N(c3nccc4cc(/C=C/C(=O)O)ccc34)[C@@H]3CCCNC3)c(F)c2)nn1 [Example 494, (R,E)-3-(1-(2-fluoro-4-(1-methyl-1H-1,2,3-triazol-4-yl)-N-(piperidin-3-yl)benzamido)isoquinolin-6-yl)acrylic acid] |
| 2300 | Cc1cc(-c2cc3c(N(C(=O)c4ccc(-c5cn(C)nn5)cc4F)[C@@H]4CCCNC4)nccc3s2)cc(C)c1C(N)=O [Example 611, (R)—N-(2-(4-carbamoyl-3,5-dimethylphenyl)thieno[3,2-c]pyridin-4-yl)-2-fluoro-4-(1-methyl-1H-1,2,3-triazol-4-yl)-N-(piperidin-3-yl)benzamide] |
| 31 | COCCc1nnc(-c2ccc(C(=O)N(c3nccc4scc(C)c34)[C@@H]3CCCNC3)cc2)s1 [Example 633, (R)-4-(5-(2-methoxyethyl)-1,3,4-thiadiazol-2-yl)-N-(3-methylthieno[3,2-c]pyridin-4-yl)-N-(piperidin-3-yl)benzamide] |
| 80 | COC[C@@H]1COCCN1c1ccnc(Nc2ccc(C(=O)N(c3nccc4cccc(C)c34)[C@@H]3CCCNC3)c(F)c2)n1 [Example 943, 2-fluoro-4-(4-((R)-3-(methoxymethyl)morpholino)pyrimidin-2-ylamino)-N-(8-methylisoquinolin-1-yl)-N—((R)-piperidin-3-yl)benzamide] |
| 150 | Cc1cn(-c2ccc(C(=O)N(c3nccc4scc(C)c34)[C@@H]3CCCNC3)c(F)c2)nn1 [Example 690, (R)-2-fluoro-4-(4-methyl-1H-1,2,3-triazol-1-yl)-N-(3-methylthieno[3,2-c]pyridin-4-yl)-N-(piperidin-3-yl)benzamide] |
| 55 | COCc1nnc(-c2ccc(C(=O)N(c3nccc4cc(F)cc(C)c34)[C@@H]3CCCNC3)c(F)c2)s1 [Example 853, 2-fluoro-N-(6-fluoro-8-methyl-1-isoquinolyl)-4-[5-(methoxymethyl)-1,3,4-thiadiazol-2-yl]-N-[(3R)-3-piperidyl]benzamide] |
| 56 | Cc1cccc2ccnc(N(C(=O)c3ccc(Nc4nccc(-n5ccnc5)n4)cc3F)[C@@H]3CCCNC3)c12 [Example 724, (R)-4-((4-(1H-imidazol-1-yl)pyrimidin-2-yl)amino)-2-fluoro-N-(8-methylisoquinolin-1-yl)-N-(piperidin-3-yl)benzamide] |
| > 10000 | Cn1cc(-c2ccc(C(=O)N(c3nccc4sc(-c5ccc(S(=O)(=O)NCCN)cc5)cc34)[C@@H]3CCCNC3)c(F)c2)nn1 [Example 536, N-[2-[4-(2-aminoethylsulfamoyl)phenyl]thieno[3,2-c]pyridin-4-yl]-2-fluoro-4-(1-methyltriazol-4-yl)-N-[(3R)-3-piperidyl] benzamide] |
| 100 | COCCc1c(-c2ccc(C(=O)N(c3nccc4cc(Cl)cc(C)c34)[C@@H]3CCCNC3)c(F)c2)nnn1C [Example 636, (R)—N-(6-chloro-8-methylisoquinolin-1-yl)-2-fluoro-4-(5-(2-methoxyethyl)-1-methyl-1H-1,2,3-triazol-4-yl)-N-(piperidin-3-yl)benzamide] |
| 140 | COc1cc(C)c2c(N(C(=O)c3ccc(-c4nnc(C)s4)nc3)[C@@H]3CCCNC3)nccc2c1F [Example 911, N-(5-fluoro-6-methoxy-8-methyl-1-isoquinolyl)-6-(5-methyl-1,3,4-thiadiazol-2-yl)-N-[(3R)-3-piperidyl]pyridine-3-carboxamide] |
| 92 | Cn1cc(-c2ccc(C(=O)N(c3nccc4sc(-c5ccc6[nH]ccc6c5)cc34)[C@@H]3CCCNC3)c(F)c2)nn1 [Example 546, 2-fluoro-N-[2-(1H-indol-5-yl)thieno[3,2-c]pyridin-4-yl]-4-(1-methyltriazol-4-yl)-N-[(3R)-3-piperidyl]benzamide] |
| 180 | CCc1nnc(-c2ccc(C(=O)N(c3nccc4cc(F)cc(C)c34)[C@@H]3CCCNC3)nc2)s1 [Example 672, (R)-5-(5-ethyl-1,3,4-thiadiazol-2-yl)-N-(6-fluoro-8-methylisoquinolin-1-yl)-N-(piperidin-3-yl)picolinamide] |
| 120 | Cc1cccc2ccnc(N(C(=O)c3ccc(Nc4nccc(NCc5nccs5)n4)cc3F)[C@@H]3CCCNC3)c12 [Example 693, (R)-2-fluoro-N-(8-methylisoquinolin-1-yl)-N-(piperidin-3-yl)-4-((4-((thiazol-2-ylmethyl)amino)pyrimidin-2-yl)amino)benzamide] |
| 4.2 | Cc1cc(F)cc2ccnc(N(C(=O)c3ccc(-n4nnc5cccnc54)cc3F)[C@@H]3CCCNC3)c12 [Example 583, (R)-4-(3H-[1,2,3]triazolo[4,5-b]pyridin-3-yl)-2-fluoro-N-(6-fluoro-8-methylisoquinolin-1-yl)-N-(piperidin-3-yl)benzamide] |
| 150 | Cc1nnc(-c2ccc(C(=O)N(c3nccc4cc(F)cc(C)c34)[C@@H]3CCCNC3)c(F)c2)o1 [Example 776, (R)-2-fluoro-N-(6-fluoro-8-methylisoquinolin-1-yl)-4-(5-methyl-1,3,4-oxadiazol-2-yl)-N-(piperidin-3-yl)benzamide] |
| 1400 | Cc1cccc2ccnc(N(C(=O)N3CCc4[nH]nc(-c5ccccc5)c4C3)[C@@H]3CCCNC3)c12 [Example 343, (R)—N-(8-methylisoquinolin-1-yl)-3-phenyl-N-(piperidin-3-yl)-1,4,6,7-tetrahydro-5H-pyrazolo[4,3-c]pyridine-5-carboxamide] |
| 2200 | Cc1cccc2ccnc(N(C(=O)c3ccc(Nc4ccccn4)nc3)[C@@H]3CCCNC3)c12 [Example 843, (R)—N-(8-methylisoquinolin-1-yl)-N-(piperidin-3-yl)-6-(pyridin-2-ylamino)nicotinamide] |
| 240 | O=C(c1ccc(-n2nnc3cccnc32)cc1F)N(c1nccc2sc(-c3ccc(CO)cc3)cc12)[C@@H]1CCCNC1 [Example 599, (R)-4-(3H-[1,2,3]triazolo[4,5-b]pyridin-3-yl)-2-fluoro-N-(2-(4-(hydroxymethyl)phenyl)thieno[3,2-c]pyridin-4-yl)-N-(piperidin-3-yl)benzamide] |
